Source: patent US8834841B2, “Imaging agents” (priority 2005, dated 2014)

Assays:
[1] = tested on: A549 (lung), DU145 (prostate), SKOV3 (ovary), and MDA MB468 (breast) tumor-bearing SCID mice; assay: in vivo biodistribution studies, summary over tumor models; settings: injected intravenously
Experimental: For the in vitro amino acid uptake studies, all cells can be grown to monolayer confluency in T-175 culture flasks [Corning, Corning, N.Y.] (approx. 1×10^8 cells/flask) in Dulbecco's Modified Eagle's Medium (DMEM) [Sigma, St. Louis, Mo.] in a humidified incubator (37° C., 5% CO2/95% air). Media are supplemented with 10% fetal calf serum [Hyclone, Logan, Utah], and antibiotics (10,000 U/ml penicillin and 10 mg/ml streptomycin) (Sigma, St. Louis, Mo.). For tissue culture passage, monolayer cells are detached by gentle trypsinization, resuspended in complete media, and split 1:10 into new T-flasks. Cultures are passaged weekly, and fed fresh media every 2 to 3 days. To initiate tumor growth in SCID mice, 1×10^6 cells are injected s.c. bilaterally into the flanks (inguinal region) of the recipient animals using a 1 ml syringe with a 27 gauge needle. Ex vivo experiments can be performed with animals containing tumors weighing between 500 mg and 1 g, as estimated by caliper measurement (tumor weight=(π/6)*abc, where a, b and c are the tumor length, width and height, respectively). The compounds of the invention are further evaluated for their tumor specificity and selectivity in tumor-bearing animal models. One can evaluate and compare the transport, accumulation and tissue distribution of each compound in these in vivo animal studies. Tissue distribution of the compounds is measured in SCID mice (average weight, 20-25 g) bearing human tumors as follows. The candidate radioligands (20 uCi in 0.4 ml 0.9% NaCl) are injected into the tail vein of tumor-bearing mice. The animals are sacrificed (cervical dislocation) at 5, 30, 60 and 120 minutes post-injection. Tissues (blood, heart, liver, lungs, kidneys, bone, thyroid, muscle, brain and tumor) are excised, rinsed in saline, and blotted dry. The tissues are weighed, placed into 12×75 mm glass vials, the radioactivity determined with a gamma counter, and the percent dose/gram calculated. Total activities of blood and muscle are calculated by assuming that they account for 7% and 40% of the total body mass, respectively. As exemplified above, the amino acid compounds of the invention have advantageous physiological characteristics (i.e., tumor binding specificity and selectivity, in vivo stability etc).

[2] = tested on: type “L” type large-neutral amino acid transport system; assay: in vitro uptake studies in human tumor cells, summary; type: cell-based; settings: U87, DU145, A549, SKOV3, MB468 cells (Table 1)
Source text: The inventive compounds have been evaluated in vitro for tumor binding specificity (i.e. uptake cells) using a variety of tumor cell lines available in the art, along with reference compounds such as Me-AIB and BCH. Detailed description of these assays can be found in Martarello et al. (2002) Journal of Medicinal Chemistry, 45:2250-2259 and McConathy et al. (2003) Nuclear Medicine and Biology, 30:477-490. These, so called “amino acid uptake studies” are typically carried out with radiolabeled compounds in at least five phenotypically different human tumor cell lines (e.g. A549 lung carcinoma, MB468 breast carcinoma, DU145 prostate carcinoma, SKOV3 ovarian carcinoma, and U87 glial blastoma). These tumor cell lines can be grown either in vitro or in vivo with severe combined immunodeficiency (SCID) mice as a host. […]
In the in vitro studies the uptake rate of each amino acid compound is measured in each tumor line, as well as the dominant transport mechanisms of each tumor cell line. After trypsinization, cells are resuspended in serum-free media, then counted on a hemocytometer, with viability assessed through Trypan blue staining. […] The vials are placed in a Cobra-II gamma counter (Packard, Meriden, Conn.), with the activity per cell number determined. […] Saline washes are performed as described above, and the filtered cells radioactivity determined on the gamma counter. […]

[3] = 120 min p.i., range over tumor models

## NC1(C(=O)O)CCC1[18F] [Anti-R,S 2-[^18F]FACBC, (R,S) anti-1-amino-2-[^18F]fluorocyclobutyl-1-carboxylic acid]
[1]; [3]
  tumor uptake: 1.4-3.4 % dose/g
  tumor-to brain ratio: 15-30
  tumor-to kidney ratio: 1.5-2.7
  tumor-to liver ratio: 2.4-4
  tumor-to muscle ratio: 2-4
[1]
  accumulation of radioactivity in tumors: rapid and prolonged accumulation of radioactivity in tumors
[2]
  uptake by the type “L” type large-neutral amino acid transport system: high uptake
